According to PMC4671066, “Characterization of the 26S proteasome network in Plasmodium falciparum” (Scientific Reports, 2015):

Assays:
[1] = target: T1, PfUSP14 (PFE1355c, ubiquitin carboxyl-terminal hydrolase, putative) (Plasmodium falciparum, UniProt Q8I3J3); assay: concentration-dependent inhibition of recombinant PfUSP14 deubiquitinase activity; assay type: biochemical
T1 construct: gene PF3D7_0527200; recombinant hexahistidyl-tagged PfUSP14
T1 sequence (Q8I3J3 1-605): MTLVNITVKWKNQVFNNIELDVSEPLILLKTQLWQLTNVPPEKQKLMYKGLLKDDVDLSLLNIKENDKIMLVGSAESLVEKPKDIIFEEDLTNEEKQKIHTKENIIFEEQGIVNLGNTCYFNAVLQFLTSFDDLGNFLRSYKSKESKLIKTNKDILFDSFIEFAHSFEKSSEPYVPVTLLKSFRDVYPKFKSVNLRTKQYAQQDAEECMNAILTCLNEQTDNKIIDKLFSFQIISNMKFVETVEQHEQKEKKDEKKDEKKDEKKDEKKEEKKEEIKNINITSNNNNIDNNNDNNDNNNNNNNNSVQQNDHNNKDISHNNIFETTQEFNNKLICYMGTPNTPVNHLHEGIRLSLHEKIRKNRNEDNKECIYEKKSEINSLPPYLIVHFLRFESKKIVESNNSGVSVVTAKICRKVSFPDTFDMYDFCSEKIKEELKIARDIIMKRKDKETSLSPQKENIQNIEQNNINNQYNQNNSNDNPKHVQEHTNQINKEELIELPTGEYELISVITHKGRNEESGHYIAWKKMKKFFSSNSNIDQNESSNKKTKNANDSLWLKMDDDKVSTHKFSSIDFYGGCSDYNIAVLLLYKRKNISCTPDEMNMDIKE

[2] = target: T2, P. falciparum 26S proteasome, β5 subunit (chymotrypsin-like activity) (Plasmodium falciparum, UniProt Q8IJT1); assay type: biochemical
T2 construct: gene PF3D7_1011400; with other 20S and 19S proteasome subunits
T2 sequence (Q8IJT1 61-271): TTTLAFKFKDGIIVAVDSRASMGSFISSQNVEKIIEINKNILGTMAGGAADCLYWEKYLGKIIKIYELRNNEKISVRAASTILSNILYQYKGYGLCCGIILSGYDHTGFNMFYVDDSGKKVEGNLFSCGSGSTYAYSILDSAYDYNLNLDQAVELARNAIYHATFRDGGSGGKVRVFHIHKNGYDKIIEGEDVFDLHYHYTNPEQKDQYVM
T2 sequence (A0A5K1K7U1 39-240 partner): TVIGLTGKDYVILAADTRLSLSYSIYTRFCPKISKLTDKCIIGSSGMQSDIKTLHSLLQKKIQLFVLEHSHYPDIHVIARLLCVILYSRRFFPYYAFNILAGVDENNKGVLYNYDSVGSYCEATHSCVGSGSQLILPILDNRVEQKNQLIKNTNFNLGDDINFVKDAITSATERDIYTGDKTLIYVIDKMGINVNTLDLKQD

Row | Compound | IC50 [1] [µM] | fluorogenic peptide (Suc-LLVY-AMC) cleavage by purified proteasome, inhibitor at [2]
1 | C=CC(=O)N1C/C(=C\c2ccc([N+](=O)[O-])cc2)C(=O)/C(=C/c2ccc([N+](=O)[O-])cc2)C1 [b-AP15] | 11.3 ± 4.7 | –
2 | CC(=O)N[C@@H](CSC(=O)[C@]1([C@@H](O)C(C)C)NC(=O)[C@H](C)[C@@H]1O)C(=O)O [lactacystin] | – | the respective proteolytic activities were shown to be inhibited by the proteasome inhibitors MG132 and lactacystin
